We go through one substance from patent US11207386B2, “Methods for inhibiting tumor growth” (priority 2015, dated 2021).

Several values for one entry are separate records, joined by “and”; a condition that tells them apart may be missing. Equal values may be shown once.

In the test the test system is MCF-7 human breast cancer cells. Nature of the test: CellTiter Glo assay. The settings on record: six wells and Average. A general note: In ATP-based viability assays light output follows the ATP content of the culture.

Method: MCF-7 human breast cancer cells were obtained and cultured for 3 passages in recommended media (DMEM medium, F12-K medium, McCoys 5a medium) and 10% fetal bovine serum (FBS). Cells were harvested by trypsinization, counted on ViCell, then plated at a density of 20,000 cells per well in ten clear bottom Perkin Elmer 96 well view plates and ten clear Costar 96 well plates. Oxyrase® and substrate were added to wells in quadruplicate: a first column of 4 wells had cells alone in each well; a second column of 4 wells contained Oxyrase® (20 units/mL) and cells; a third column of 4 wells contained L-Lactate at 40 mM and cells; and a fourth column of 4 wells contained cells and buffer, the latter added at equal volume to Oxyrase®. Five Perkin Elmer 96 well view plates and five clear Costar 96 well plates were placed in an incubator at 37 degrees Celsius and supplied with 5% carbon dioxide and 10% humidity. The remaining plates were placed in an incubator in anaerobic boxes containing oxygen depleting packets.
On days 0, 1, 3, 5, and 7, one Perkin Elmer 96 well view plate each from aerobic and anaerobic incubators were removed and a CellTiter Glo® assay was performed. CellTiter Glo® reagents were thawed at room temperature and mixed just before being added to each plate. Equal volume (maximum 125 μL) of CellTiter Glo® reagent was added to the plate and the plate incubated in the dark for 15 minutes. Plates were read using a Wallac Victor2 plate reader using the luminescence range

For L-Lactate [Substrate + Buffer], the “CellTiter Glo luminescence (number of cells)” value by setting is: (MCF-7, Day 0, Substrate + Buffer) 376738 RLU and 379461 RLU and 340018 RLU and 370831 RLU and 395464 RLU and 380015 RLU; (MCF-7, Day 1, Substrate + Buffer) 136132 RLU and 135475 RLU and 224766 RLU and 187489 RLU and 171303 RLU and 142850 RLU; (MCF-7, Day 5, Substrate + Buffer) 180844 RLU and 214489 RLU and 155311 RLU and 175921 RLU and 183640 RLU and 185254 RLU; (MCF-7, Day 7, Substrate + Buffer) 147731 RLU and 163281 RLU and 149128 RLU and 150112 RLU and 139841 RLU and 176875 RLU.
